Reference: patent US10023562B2, “Heteroaryl substituted pyridyl compounds useful as kinase modulators” (BRISTOL-MYERS SQUIBB COMPANY, priority 2012, dated 2018)
Where two headings read alike, the source gives them in different places.

Test system: TLR2 induced IL-6 in peripheral blood mononuclear cells (PBMCs)
Assay: PBMC TLR2 Induced IL-6 Assay
Type: cell-based
Details: 10 μg/ml lipoteichoic acid for 5 hours, IL-6 by ELISA; for IC50: values without asterisk, read-out: Cell IC50
Description: PBMC TLR2 Induced IL-6 Assay Peripheral blood mononuclear cells (PBMCs) were isolated from human blood containing the anti-coagulant EDTA (2.5 mM) by centrifugation over a FICOLL® gradient. […] At the end of the culture, plates were centrifuged at 1800 rpm for 10 minutes to pellet the cells. Supernatants were harvested and analyzed for IL-6 levels by ELISA (BD Biosciences, San Jose, Calif.).

[1] = Homo sapiens, PBMC, 5 h, values marked * are EC50, read-out: Cell EC50 (values marked *)
[2] = human PBMC, values marked * are EC50, read-out: Cell EC50 (values marked *)

Compound CC(Nc1cc(Nc2ncc(C#N)cn2)ncc1C(=O)NC[C@@H](F)C(C)(C)O)C1CC1 (some centres unmarked) [Example 163] has an EC50 [1] of 0.459 µM.

In the case of CC(C)Nc1cc(Nc2ncc(C#N)cc2F)ncc1C(=O)NCCc1ccc(S(N)(=O)=O)cc1 [Example 121], the EC50 [1] is reported as 0.049 µM.

CC(C)(O)c1cnc(Nc2cc(Nc3ncc(C#N)cc3Cl)ncc2C(=O)NC[C@@H](F)C(C)(C)O)s1 [Example 75] showed an EC50 [1] of 0.054 µM.

Work on CC(C)Nc1cc(Nc2ncc(C#N)c(NC(C)C)n2)ncc1C(=O)NC[C@@H](F)C(C)(C)O [Example 40] yielded an EC50 [1] of 0.161 µM.

Work on CC(C)NC(=O)N[C@H](C)CCNC(=O)c1cnc(Nc2ncc(C#N)cc2F)cc1NC(C)C [Example 29, (R)-6-((5-cyano-3-fluoropyridin-2-yl)amino)-4-(isopropylamino)-N-(3-(3-isopropylureido)butyl)nicotinamide] yielded an IC50 (Homo sapiens, PBMC, 5 h) of 0.111 µM.

With CC(C)Nc1cc(Nc2ccc(=O)[nH]n2)ncc1C(=O)NC[C@@H](F)C(C)(C)O [Example 45] the IC50 (Homo sapiens, PBMC, 5 h) was 0.712 µM.

In the case of CCCNc1cc(Nc2ncc(C#N)cc2Cl)ncc1C(=O)NC[C@@H](F)C(C)(C)O [Example 138], the EC50 [1] is reported as 0.108 µM.

CC(C)(O)[C@H](F)CNC(=O)c1cnc(Nc2ncc(F)cc2F)cc1NC1CCOCC1F (some centres unmarked) [Example 108] was tested, and the EC50 [1] was 0.368 µM.

For CC(C)(O)[C@H](F)CNC(=O)c1cnc(Nc2ncc(C#N)cc2F)cc1NC12CC3CC(CC(C3)C1)C2 [Example 119], the EC50 [1] was 0.736 µM.

In the case of CNC(=O)[C@H]1CC[C@H](NC(=O)c2cnc(Nc3ncc(C#N)cc3Cl)cc2NC(C)C)CC1 [Example 16, 6-((3-chloro-5-cyanopyridin-2-yl)amino)-4-(isopropylamino)-N—((1r,4r)-4-(methylcarbamoyl)cyclohexyl)nicotinamide], the IC50 (Homo sapiens, PBMC, 5 h) is reported as 0.212 µM.

With CS(=O)(=O)[C@H]1CC[C@H](NC(=O)c2cnc(Nc3ncc(C#N)cc3F)cc2Nc2cccc(C(N)=O)c2)CC1 [Example 161] the EC50 [1] was 0.303 µM.

With COc1cccc(Nc2cc(Nc3ncc(C#N)cc3F)ncc2C(=O)NC[C@@H](F)C(C)(C)O)c1 [Example 130] the EC50 [1] was 0.089 µM.

In the case of CC(C)Nc1cc(Nc2ncc(O)cn2)ncc1C(=O)NC[C@@H](F)C(C)(C)O [Example 111], the EC50 [1] is reported as 0.653 µM.

In the case of CCC(O)(CC)[C@H](F)CNC(=O)c1cnc(Nc2ncc(C#N)cn2)cc1NC(C)C [Example 117], the EC50 [1] is reported as 0.202 µM.

Work on CC(C)Nc1cc(Nc2ncc(C#N)cc2Cl)ncc1C(=O)N[C@H]1CC[C@H](O)CC1 [Example 92] yielded an EC50 [1] of 0.269 µM.

Work on CC(C)Nc1cc(Nc2ccc(C#N)c(N3CCC(O)C3)n2)ncc1C(=O)NC[C@@H](F)C(C)(C)O (stereo in doubt) [Example 27, 6-((5-cyano-6-((3S)-3-hydroxy-1-pyrrolidinyl)-2-pyridinyl)amino)-N-((2R)-2-fluoro-3-hydroxy-3-methylbutyl)-4-(isopropylamino)nicotinamide] yielded an IC50 (Homo sapiens, PBMC, 5 h) of 0.133 µM.

CC(C)Nc1cc(Nc2ncc(C#N)cc2F)ncc1C(=O)NC1CCC(O)(c2ccnn2C)CC1 (centres unmarked) [Example 166] gave an EC50 [1] of 0.202 µM.

Compound Cc1cnc(Nc2cc(NC(C)C)c(C(=O)NC[C@@H](F)C(C)(C)O)cn2)nc1 [Example 113] has an EC50 [1] of 0.558 µM.

Work on CC(C)(O)[C@H](F)CNC(=O)c1cnc(Nc2ncc(C#N)cc2Cl)cc1NC12CC(C1)C2 [Example 90] yielded an EC50 [1] of 0.243 µM.

CC(=O)N[C@H]1CC[C@H](NC(=O)c2cnc(Nc3ncc(C#N)cc3Cl)cc2NC(C)C)CC1 [Example 15, N-((1r,4r)-4-acetamidocyclohexyl)-6-((3-chloro-5-cyanopyridin-2-yl)amino)-4-(isopropylamino)nicotinamide] showed an IC50 (Homo sapiens, PBMC, 5 h) of 0.245 µM.

With CC(C)(O)[C@H](F)CNC(=O)c1cnc(Nc2ncc(C#N)cc2F)cc1NC1CCC(F)C1 (some centres unmarked) [Example 114] the EC50 [1] was 0.056 µM.

With CC(C)(O)[C@H](F)CNC(=O)c1cnc(Nc2ncc(C#N)cc2Cl)cc1Nc1cccc(C#N)c1 [Example 162] the EC50 [1] was 0.33 µM.

CC(C)(O)[C@H](F)CNC(=O)c1cnc(Nc2ncc(C#N)cc2F)cc1Nc1cccc(NS(C)(=O)=O)c1 [Example 134] showed an EC50 [1] of 0.203 µM.

For C[C@@H](CF)Nc1cc(Nc2ncc(C#N)cc2Cl)ncc1C(=O)NC[C@@H](F)C(C)(C)O [Example 39, 6-((3-chloro-5-cyanopyridin-2-yl)amino)-N—((R)-2-fluoro-3-hydroxy-3-methylbutyl)-4-(((S)-1-fluoropropan-2-yl)amino)nicotinamide], the EC50 [1] was 0.1 µM.

Compound CC(C)CCNc1cc(Nc2ncc(C#N)cc2F)ncc1C(=O)NC[C@@H](F)C(C)(C)O [Example 141] has an EC50 [1] of 0.412 µM.

With C[C@@H](CO)Nc1cc(Nc2ncc(C#N)cc2Cl)ncc1C(=O)NC[C@@H](F)C(C)(C)O [Example 50] the IC50 (Homo sapiens, PBMC, 5 h) was 0.085 µM.

In the case of CC(C)(O)[C@H](F)CNC(=O)c1cnc(Nc2ncncc2F)cc1NC1CC1 [Example 94], the EC50 [1] is reported as 0.391 µM.

CC(C)Nc1cc(Nc2ncc(C#N)cc2Cl)ncc1C(=O)NC[C@H](F)C(C)(C)O [Example 156] gave an EC50 [1] of 0.124 µM.

In the case of Cc1cnc(Nc2cc(NC(C)C)c(C(=O)NC[C@@H](F)C(C)(C)O)cn2)c(F)c1 [Example 129], the EC50 [2] is reported as 0.398 µM.

CNC(=O)[C@H]1CC[C@H](NC(=O)c2cnc(Nc3ncc(C#N)cc3Cl)cc2NC2CC2)CC1 [Example 60] showed an IC50 (Homo sapiens, PBMC, 5 h) of 0.052 µM.

CC(=O)N[C@H]1CC[C@H](NC(=O)c2cnc(Nc3ccc(C#N)cn3)cc2NC2CCOCC2F)CC1 (stereo partly drawn) [Example 11, N-((1R,4R)-4-acetamidocyclohexyl)-6-((5-cyanopyridin-2-yl)amino)-4-(((3 S,4R)-3-fluorotetrahydro-2H-pyran-4-yl)amino)nicotinamide] showed an IC50 (Homo sapiens, PBMC, 5 h) of 0.32 µM.

Compound CC(C)Nc1cc(Nc2ncc(F)cc2F)ncc1C(=O)NC[C@@H](F)C(C)(C)O [Example 80] has an EC50 [1] of 0.335 µM.

With CC(C)(O)[C@H](F)CNC(=O)c1cnc(Nc2ncc(C#N)cc2Cl)cc1N[C@H]1CC[C@@](C)(O)CC1 [Example 152] the EC50 [1] was 0.26 µM.

For CC(C)(O)[C@H](F)CNC(=O)c1cnc(Nc2ncncc2Cl)cc1NC1CCCOC1 (some centres unmarked) [Example 96], the IC50 (Homo sapiens, PBMC, 5 h) was 1.55 µM.

For CS(=O)(=O)[C@H]1CC[C@H](NC(=O)c2cnc(Nc3ncc(C#N)cc3Cl)cc2NC2CCOCC2)CC1 [Example 149], the EC50 [1] was 0.193 µM.

Work on CC(C)(O)[C@H](F)CNC(=O)c1cnc(Nc2ccc(C#N)cn2)cc1NCC(F)(F)F [Example 3, 6-((5-cyano-2-pyridinyl)amino)-N-((2R)-2-fluoro-3-hydroxy-3-methylbutyl)-4-((2,2,2-trifluoroethyl)amino)nicotinamide] yielded an IC50 (Homo sapiens, PBMC, 5 h) of 0.789 µM.

CNC(=O)[C@H]1CC[C@H](NC(=O)c2cnc(Nc3ncc(C#N)cc3F)cc2NC(C)C)CC1 [Example 18, 6-((5-cyano-3-fluoropyridin-2-yl)amino)-4-(isopropylamino)-N-((1r,4r)-4-(methylcarbamoyl)cyclohexyl)nicotinamide] was tested, and the IC50 (Homo sapiens, PBMC, 5 h) was 0.137 µM.

CC(=O)N[C@H](C)CCNC(=O)c1cnc(Nc2ncc(C#N)cc2Cl)cc1NC(C)C [Example 28, (R)—N-(3-acetamidobutyl)-6-((3-chloro-5-cyanopyridin-2-yl)amino)-4-(isopropylamino)nicotinamide] gave an IC50 (Homo sapiens, PBMC, 5 h) of 0.27 µM.

CC(=O)Nc1nc(Nc2cc(NC(C)C)c(C(=O)NC[C@@H](F)C(C)(C)O)cn2)ncc1C#N [Example 34] gave an EC50 [1] of 0.122 µM.

Compound CC(C)Nc1cc(Nc2ncc(C#N)cc2F)ncc1C(=O)N[C@H]1CC[C@H](C(=O)NC2CC2)CC1 [Example 118] has an EC50 [1] of 0.172 µM.

For Cc1nc(Nc2cc(NC(C)C)c(C(=O)NC[C@@H](F)C(C)(C)O)cn2)ccc1C#N [Example 63], the EC50 [1] was 0.092 µM.

CC(C)(O)[C@H](F)CNC(=O)c1cnc(Nc2ncc(C#N)cc2F)cc1Nc1cccc(O)c1 [Example 125] was tested, and the EC50 [1] was 0.085 µM.

For CNC(=O)[C@H]1CC[C@H](NC(=O)c2cnc(Nc3ccc(C#N)cn3)cc2NC(C)C)CC1 [Example 5, 6-((5-cyano-2-pyridinyl)amino)-4-(isopropylamino)-N-(trans-4-(methylcarbamoyl)cyclohexyl)nicotinamide], the IC50 (Homo sapiens, PBMC, 5 h) was 0.588 µM.

In the case of CC(C)Nc1cc(Nc2nc(OC3CCNCC3)ncc2Cl)ncc1C(=O)NC[C@@H](F)C(C)(C)O [Example 41], the EC50 [1] is reported as 0.16 µM.

Compound CC(C)Nc1cc(Nc2ncncc2N)ncc1C(=O)NC[C@@H](F)C(C)(C)O [Example 132] has an EC50 [1] of 0.862 µM.

CCn1ncc(Nc2cc(NC(C)C)c(C(=O)NC[C@@H](F)C(C)(C)O)cn2)n1 [Example 72] showed an EC50 [1] of 0.246 µM.

CCNc1cc(Nc2ccc(C#N)cn2)ncc1C(=O)NC[C@@H](F)C(C)(C)O [Example 4, 6-((5-cyano-2-pyridinyl)amino)-4-(ethylamino)-N-((2R)-2-fluoro-3-hydroxy-3-methylbutyl)nicotinamide] was tested, and the IC50 (Homo sapiens, PBMC, 5 h) was 0.454 µM.

Work on CC(C)(O)[C@H](F)CNC(=O)c1cnc(Nc2ncc(C#N)cc2Cl)cc1Nc1cccc(C(N)=O)c1 [Example 143] yielded an EC50 [1] of 0.126 µM.

Compound CC(=O)N[C@H]1CC[C@H](NC(=O)c2cnc(Nc3ncc(C#N)cc3F)cc2NC2CC2)CC1 [Example 83] has an EC50 [1] of 0.771 µM.

In the case of Cn1nnnc1-c1ccc(Nc2cc(Nc3ncc(C#N)cc3Cl)ncc2C(=O)NC[C@@H](F)C(C)(C)O)cc1 [Example 148], the EC50 [1] is reported as 0.111 µM.

C[C@H](CO)Nc1cc(Nc2ncc(F)cc2F)ncc1C(=O)NC[C@@H](F)C(C)(C)O [Example 100] was tested, and the EC50 [1] was 0.308 µM.

CC(C)(O)[C@H](F)CNC(=O)c1cnc(Nc2ncc(C#N)cc2F)cc1NC1COC1 [Example 164] showed an EC50 [2] of 0.174 µM.

CC(C)(O)[C@H](F)CNC(=O)c1cnc(Nc2ncncc2Cl)cc1NC1CCOCC1 [Example 95] showed an EC50 [1] of 0.501 µM.

In the case of CC(C)(O)[C@H](F)CNC(=O)c1cnc(Nc2ncc(C#N)cc2F)cc1Nc1cccc(C(N)=O)c1 [Example 135], the EC50 [1] is reported as 0.129 µM.

Compound CC(C)Nc1cc(Nc2ncncc2F)ncc1C(=O)NC[C@@H](F)C(C)(C)O [Example 53] has an EC50 [1] of 0.517 µM.

CC(C)(O)[C@H](F)CNC(=O)c1cnc(Nc2ncc(C#N)cc2F)cc1NC1CC1 [Example 47] was tested, and the IC50 (Homo sapiens, PBMC, 5 h) was 0.069 µM.
